The mass density is the mass of a sample divided by its volume. The term refractive index denotes the speed of light in vacuum divided by its phase velocity in the sample.

± gives the expanded uncertainty stated by the source.

A short description of data set [1]: xn = mol fraction of the nth substance listed. As to conditions: 298.15 K, 101 kPa, Liquid, Vibrating tube method.
For data set [2] the following is noted: 298.15 K; 101.33 kPa; Liquid; Vibrating tube method.
A short description of data set [3]: refractive index (Na D-line) (dimensionless). As to conditions: 298.15 K; 101.33 kPa; Liquid; Standard Abbe refractometry.

For the compound `Cc1ccccc1C` [1,2-dimethylbenzene] + CCCCCC, the mass density in data set [1] (x2 = 0) came to 875.37 ± 0.24 kg/m3; in data set [1] (x2 = 0.045), 865.52 ± 2.7 kg/m3; in data set [1] (x2 = 0.097), 853.5 ± 2.7 kg/m3; in data set [1] (x2 = 0.189) it was 832.71 ± 2.7 kg/m3; in data set [1] (x2 = 0.295), 809.05 ± 2.7 kg/m3; in data set [1] (x2 = 0.397), 786.32 ± 2.7 kg/m3. The mass density in data set [1] (x2 = 0.495) came out at 764.54 ± 2.7 kg/m3; in data set [1] (x2 = 0.597), 742.07 ± 2.6 kg/m3; in data set [1] (x2 = 0.697), 720.32 ± 2.6 kg/m3; in data set [1] (x2 = 0.797) it was 698.71 ± 2.6 kg/m3; in data set [1] (x2 = 0.901) it was 676.45 ± 2.6 kg/m3; in data set [1] (x2 = 0.95), 665.83 ± 2.6 kg/m3.

For the compound `Cc1cccc(C)c1` [1,3-dimethylbenzene] + CCCCCC, the mass density in data set [1] (x2 = 0) amounted to 859.79 ± 0.24 kg/m3; in data set [1] (x2 = 0.05), 849.62 ± 2.5 kg/m3; in data set [1] (x2 = 0.098) it was 839.51 ± 2.5 kg/m3; in data set [1] (x2 = 0.194), 819.34 ± 2.5 kg/m3; in data set [1] (x2 = 0.297) it was 797.9 ± 2.5 kg/m3; in data set [1] (x2 = 0.398), 777.18 ± 2.5 kg/m3. The mass density in data set [1] (x2 = 0.498) is given as 756.55 ± 2.5 kg/m3; in data set [1] (x2 = 0.6), 735.62 ± 2.5 kg/m3; in data set [1] (x2 = 0.699) it was 715.46 ± 2.5 kg/m3; in data set [1] (x2 = 0.793), 696.42 ± 2.4 kg/m3; in data set [1] (x2 = 0.896), 676.03 ± 2.4 kg/m3; in data set [1] (x2 = 0.948), 665.51 ± 2.4 kg/m3.

Take `Cc1ccc(C)cc1` [1,4-dimethylbenzene] + CCCCCC: the mass density worked out at 856.59 ± 0.24 kg/m3 in data set [1] (x2 = 0); 847.14 ± 2.4 kg/m3 in data set [1] (x2 = 0.048); 836.82 ± 2.5 kg/m3 in data set [1] (x2 = 0.098); 816.92 ± 2.5 kg/m3 in data set [1] (x2 = 0.196); 797.23 ± 2.5 kg/m3 in data set [1] (x2 = 0.292); 776.41 ± 2.5 kg/m3 in data set [1] (x2 = 0.394). In addition, the mass density was 756.57 ± 2.4 kg/m3 in data set [1] (x2 = 0.492); 736.73 ± 2.4 kg/m3 in data set [1] (x2 = 0.591); 716.48 ± 2.4 kg/m3 in data set [1] (x2 = 0.692); 696.69 ± 2.4 kg/m3 in data set [1] (x2 = 0.792); 676.71 ± 2.4 kg/m3 in data set [1] (x2 = 0.892); 665.7 ± 2.4 kg/m3 in data set [1] (x2 = 0.948).

In the case of `CCOS(=O)(=O)[O-].CC[n+]1cccc(C)c1` [1-ethyl-3-methylpyridinium ethylsulfate], the mass density in data set [2] is 1219.61 ± 0.42 kg/m3. Moreover, in data set [3], the refractive index is given as 1.50591 ± 0.00071.

Consider `CCCCCC` [hexane] + Cc1ccc(C)cc1, for which, in data set [1] (x1 = 1), the mass density turned out to be 655.19 ± 0.25 kg/m3.

For `CCCCCC` [hexane] + Cc1cccc(C)c1, the mass density in data set [1] (x1 = 1) turned out to be 655.19 ± 0.25 kg/m3.

`CCCCCC` [hexane] + Cc1ccccc1C: in data set [1] (x1 = 1), the mass density worked out at 655.19 ± 0.25 kg/m3.
